This is an account of results in EP4660184A1 (Eurofarma Laboratórios S.A., priority 2023, dated 2024).

The target of assay [1] is T1, human sodium channels Nav 1.8 (Homo sapiens, UniProt Q9Y5Y9).
T1 construct: expressed in transfected cells
The experiment in a line: Automated whole-cell voltage-clamp (ScreenPatch 384P) sodium current block, Nav 1.8. Type of assay: cell-based. The settings on record: CHO cells stably expressing human Nav 1.8; inactivation step -40 mV for 8 seconds, test step 10 mV (TP1A); exposure at least five minutes; room temperature; mean if two or more assays; read-out: Nav1.8 IC50. As to the method:
(§1) Biological assays were performed on Chinese hamster ovary (CHO) cells that express human sodium channels Nav 1.8 or Nav 1.7 in a stable manner.
(§2) The experimental protocol voltage-clamp using the whole cell configuration was established on the automated ScreenPatch® 384P platform (SP384PE, Nanion Technologies, Livingston, NJ) and the results were recorded with a Nanion 384-well Patch Clamp chip (NPC) (Nanion Technologies, Livingston, NJ).
(§3) Formula I compounds were diluted in eight concentrations in the extracellular solution composed of saline saline solution, buffered with HEPES (mM): NaCl, 137; KCl, 4; CaCl2, 3,8; MgCl2, 1; HEPES, 10; Glucose, 10; pH 7.4. The […], 50; CsF, 90; MgCl2, 5; EGTA, 5; HEPES, 10; pH 7.2. The duration of exposure of each compound with cells expressing Nav 1.7 or Nav 1.8 was at least five minutes and the assays were performed at room temperature.
(§4) The measurements of the sodium currents of Nav 1.8 and Nav 1.7 were obtained using the voltage protocol described below.
(§5) A holding voltage of -100 mV was established followed by an inactivation voltage step at -40 mV for 8 seconds, followed by a step of -100 mV for 20 ms, followed by a 20 ms step for 10 mV for Nav 1.8 or 0 mV for Nav 1.7 (TP1A) before returning to the holding voltage of -100 mV.
(§6) The protocol was repeated at a frequency of 0.05 Hz and the amplitude of the current was quantified throughout the recording of the TP1A phase. The variation in the amplitude of the peak current was evaluated according to the formula described below, after exposing the cells expressing the channels to each concentration of the different compounds: % Block = (1−(ITP1A,molecule/ITP1A,basal)×100%, [formula] wherein ITP1A,basal and ITP1A,molecule represent the peaks of sodium current input into TP1A before exposure to the compound and in the presence of the compound, respectively.
(§7) Data were obtained by nonlinear regression (nonlinear least squares) with XLfit for Excel (Microsoft, Redmond, WA).
(§8) The compounds were tested in at least one assay to obtain the value of CI50. For compounds that were tested in two or more assays, the results are described as the mean of the CI50 values.

The target in assay [2] is T2, human sodium channels Nav 1.7 (Homo sapiens, UniProt Q15858).
T2 construct: expressed in transfected cells
T2 sequence (Q15858 whole entry): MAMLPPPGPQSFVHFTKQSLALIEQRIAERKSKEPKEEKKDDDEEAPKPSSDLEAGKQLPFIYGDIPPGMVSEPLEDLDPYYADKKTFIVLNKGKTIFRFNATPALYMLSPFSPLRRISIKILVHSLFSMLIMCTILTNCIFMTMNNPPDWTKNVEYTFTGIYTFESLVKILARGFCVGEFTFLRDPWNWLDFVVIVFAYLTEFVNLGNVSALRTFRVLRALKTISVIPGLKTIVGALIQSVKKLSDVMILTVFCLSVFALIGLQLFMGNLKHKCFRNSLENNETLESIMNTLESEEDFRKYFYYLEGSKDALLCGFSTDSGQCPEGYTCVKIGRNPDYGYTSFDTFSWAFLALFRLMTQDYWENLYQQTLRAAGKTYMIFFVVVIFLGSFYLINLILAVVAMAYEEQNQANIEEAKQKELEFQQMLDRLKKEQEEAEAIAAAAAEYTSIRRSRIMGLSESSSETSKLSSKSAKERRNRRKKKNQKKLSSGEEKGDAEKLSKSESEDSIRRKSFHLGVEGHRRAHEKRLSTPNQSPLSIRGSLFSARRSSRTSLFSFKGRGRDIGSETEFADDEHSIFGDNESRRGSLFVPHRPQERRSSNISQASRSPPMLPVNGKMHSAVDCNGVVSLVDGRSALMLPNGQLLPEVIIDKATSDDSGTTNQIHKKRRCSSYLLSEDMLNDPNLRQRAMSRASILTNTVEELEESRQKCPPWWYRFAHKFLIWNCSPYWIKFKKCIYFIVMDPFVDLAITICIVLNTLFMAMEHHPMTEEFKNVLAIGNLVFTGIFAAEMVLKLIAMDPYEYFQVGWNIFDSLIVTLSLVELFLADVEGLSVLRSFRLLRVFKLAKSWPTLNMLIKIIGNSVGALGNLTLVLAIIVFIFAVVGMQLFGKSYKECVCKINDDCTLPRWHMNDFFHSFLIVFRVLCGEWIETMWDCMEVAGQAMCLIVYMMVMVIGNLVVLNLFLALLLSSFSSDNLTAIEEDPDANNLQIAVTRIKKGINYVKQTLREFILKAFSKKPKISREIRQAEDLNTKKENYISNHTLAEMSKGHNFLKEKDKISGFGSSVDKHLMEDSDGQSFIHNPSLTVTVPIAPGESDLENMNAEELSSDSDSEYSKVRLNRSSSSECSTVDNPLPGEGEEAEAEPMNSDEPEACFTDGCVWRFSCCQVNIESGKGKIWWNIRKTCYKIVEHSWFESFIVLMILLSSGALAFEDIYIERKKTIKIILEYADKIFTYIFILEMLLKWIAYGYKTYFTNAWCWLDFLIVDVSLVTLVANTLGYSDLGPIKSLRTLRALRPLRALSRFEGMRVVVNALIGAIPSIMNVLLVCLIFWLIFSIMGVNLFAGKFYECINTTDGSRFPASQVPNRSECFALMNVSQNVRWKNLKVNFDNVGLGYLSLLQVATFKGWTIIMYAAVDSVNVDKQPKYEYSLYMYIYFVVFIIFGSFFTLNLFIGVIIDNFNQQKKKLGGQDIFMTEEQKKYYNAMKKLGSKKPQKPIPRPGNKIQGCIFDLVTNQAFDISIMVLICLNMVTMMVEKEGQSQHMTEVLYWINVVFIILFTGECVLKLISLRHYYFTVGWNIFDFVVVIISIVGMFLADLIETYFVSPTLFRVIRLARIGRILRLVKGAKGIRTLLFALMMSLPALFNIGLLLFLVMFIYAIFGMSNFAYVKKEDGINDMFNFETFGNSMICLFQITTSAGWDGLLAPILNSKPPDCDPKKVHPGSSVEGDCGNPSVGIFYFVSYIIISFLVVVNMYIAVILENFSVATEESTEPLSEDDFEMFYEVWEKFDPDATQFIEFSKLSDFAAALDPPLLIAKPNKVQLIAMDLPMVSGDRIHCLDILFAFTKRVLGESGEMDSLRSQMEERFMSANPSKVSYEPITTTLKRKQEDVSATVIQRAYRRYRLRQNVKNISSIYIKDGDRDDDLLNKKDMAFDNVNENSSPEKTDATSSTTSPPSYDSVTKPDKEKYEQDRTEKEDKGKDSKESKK
The experiment in a line: Automated whole-cell voltage-clamp (ScreenPatch 384P) sodium current block, Nav 1.7. Type of assay: cell-based. The settings on record: CHO cells stably expressing human Nav 1.7; inactivation step -40 mV for 8 seconds, test step 0 mV (TP1A); exposure at least five minutes; room temperature; mean if two or more assays; read-out: Nav1.7 IC50. As to the method: as §1, §2, §3, §4, §5, §6, §7, §8

T1 sequence (Q9Y5Y9 whole entry): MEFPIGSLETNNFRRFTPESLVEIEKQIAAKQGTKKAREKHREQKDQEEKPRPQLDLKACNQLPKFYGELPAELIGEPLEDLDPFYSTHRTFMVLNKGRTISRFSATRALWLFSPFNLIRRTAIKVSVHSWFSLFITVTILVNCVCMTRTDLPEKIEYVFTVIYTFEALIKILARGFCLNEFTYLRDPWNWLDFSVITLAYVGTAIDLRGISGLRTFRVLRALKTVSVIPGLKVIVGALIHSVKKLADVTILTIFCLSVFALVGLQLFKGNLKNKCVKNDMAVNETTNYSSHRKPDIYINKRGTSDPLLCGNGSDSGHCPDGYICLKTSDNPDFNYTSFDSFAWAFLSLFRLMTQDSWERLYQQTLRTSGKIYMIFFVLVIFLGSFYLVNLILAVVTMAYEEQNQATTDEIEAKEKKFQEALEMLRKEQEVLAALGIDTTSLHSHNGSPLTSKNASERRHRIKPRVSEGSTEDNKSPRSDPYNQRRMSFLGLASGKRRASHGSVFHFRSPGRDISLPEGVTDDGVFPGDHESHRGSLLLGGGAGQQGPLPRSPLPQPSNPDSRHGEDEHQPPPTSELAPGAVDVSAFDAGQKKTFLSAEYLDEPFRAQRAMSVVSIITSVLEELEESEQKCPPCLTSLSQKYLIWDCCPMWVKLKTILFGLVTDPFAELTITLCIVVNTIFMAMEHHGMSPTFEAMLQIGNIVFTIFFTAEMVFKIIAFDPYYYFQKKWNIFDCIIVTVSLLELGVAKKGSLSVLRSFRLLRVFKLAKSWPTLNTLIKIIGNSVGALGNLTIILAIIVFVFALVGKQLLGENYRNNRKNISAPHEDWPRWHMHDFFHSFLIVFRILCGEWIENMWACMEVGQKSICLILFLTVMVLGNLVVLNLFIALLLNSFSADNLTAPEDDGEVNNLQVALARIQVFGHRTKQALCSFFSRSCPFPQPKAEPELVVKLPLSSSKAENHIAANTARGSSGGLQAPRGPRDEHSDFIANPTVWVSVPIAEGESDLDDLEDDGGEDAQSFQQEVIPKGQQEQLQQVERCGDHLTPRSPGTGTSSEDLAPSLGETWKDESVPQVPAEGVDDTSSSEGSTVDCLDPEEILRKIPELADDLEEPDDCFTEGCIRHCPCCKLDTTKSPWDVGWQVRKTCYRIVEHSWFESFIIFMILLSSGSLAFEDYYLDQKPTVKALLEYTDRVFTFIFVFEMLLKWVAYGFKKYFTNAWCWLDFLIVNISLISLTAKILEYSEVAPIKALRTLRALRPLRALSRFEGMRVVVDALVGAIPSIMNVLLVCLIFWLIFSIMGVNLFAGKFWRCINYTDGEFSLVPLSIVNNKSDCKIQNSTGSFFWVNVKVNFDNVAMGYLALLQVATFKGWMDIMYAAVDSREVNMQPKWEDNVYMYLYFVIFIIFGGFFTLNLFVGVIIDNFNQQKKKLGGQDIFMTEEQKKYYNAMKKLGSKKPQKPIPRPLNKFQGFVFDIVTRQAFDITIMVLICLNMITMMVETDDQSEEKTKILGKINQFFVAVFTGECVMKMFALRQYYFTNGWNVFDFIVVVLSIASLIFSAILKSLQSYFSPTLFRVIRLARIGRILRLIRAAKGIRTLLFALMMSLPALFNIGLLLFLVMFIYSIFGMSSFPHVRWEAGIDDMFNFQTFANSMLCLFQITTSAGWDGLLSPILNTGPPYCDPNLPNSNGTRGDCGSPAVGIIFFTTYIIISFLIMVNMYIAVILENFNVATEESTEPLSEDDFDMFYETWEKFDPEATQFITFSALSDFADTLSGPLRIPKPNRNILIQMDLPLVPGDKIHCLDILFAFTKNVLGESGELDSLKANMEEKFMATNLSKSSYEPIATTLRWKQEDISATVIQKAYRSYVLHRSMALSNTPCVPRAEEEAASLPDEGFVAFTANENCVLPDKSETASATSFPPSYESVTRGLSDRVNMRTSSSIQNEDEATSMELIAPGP

The term IC50 denotes the concentration at which inhibition is half-maximal. On to `CCOc1ccc(-c2cncc(C(=O)NOCc3ccccc3F)n2)cn1` [Compound 32, 6-(6-ethoxypyridine-3-yl)-N-((2-fluorobenzyl)oxy)pyrazine-2-carboxamide], for which the IC50 in assay [1] was 500 to 1000 nM; in assay [2] it was above 1000 nM.

With `[2H]C([2H])([2H])C([2H])([2H])Oc1ccc(-c2cncc(C(=O)NOCc3cc(OC)ccc3F)n2)cn1` [Compound 48, 6-(6-(ethoxy-d5)pyridine-3-yl)-N-((2-fluoro-5-methoxybenzyl)oxy)pyrazine-2-carboxamide], the IC50 in assay [1] and in assay [2] was above 1000 nM each time.

`O=C(NOCc1ccccc1F)c1cncc(-c2ccc(OC(F)(F)F)nc2)n1` [Compound 71]: the 50% inhibitory concentration (IC50) in assay [1] and in assay [2] was below 500 nM each time.

For the compound `CCOc1ccc(-c2cncc(C(=O)NOCc3cc(OC)ccc3F)n2)c(C)c1` [Compound 86], the figures for the IC50 in assay [1] and in assay [2] were below 500 nM and above 1000 nM, respectively.

For `COc1cnc(F)c(CONC(=O)c2cncc(-c3ccc(OC(F)F)nc3)n2)c1` [Compound 78], the IC50 in assay [1] and in assay [2] was above 1000 nM each time.

As to `CCOc1ccc(-c2cc(O)nc(C(=O)NOCc3cc(OC)ccc3F)n2)cc1` [Compound 113], the IC50 was below 500 nM in assay [1] and above 1000 nM in assay [2].

Consider `CCOc1ccc(-c2cncc(C(=O)NOCc3cccn3C)n2)cn1` [Compound 60, 6-(6-ethoxypyridine-3-yl)-N-((1-methyl-1H-pyrrole-2-yl)methoxy)pyrazine-2-carboxamide], for which the IC50 was below 500 nM in assay [1] and 500 to 1000 nM in assay [2].

Take `CCOc1ccc(-c2cncc(C(=O)NOCc3ncoc3C)n2)cn1` [Compound 57, 6-(6-ethoxypyridine-3-yl)-N-((5-methyloxazole-4-yl)methoxy)pyrazine-2-carboxamide]: the IC50 in assay [1] and in assay [2] was above 1000 nM throughout.

On to `CCOc1ccc(-c2cncc(C(=O)NOCc3cc(OC)ccc3O)n2)cc1` [Compound 16, 6-(4-ethoxyphenyl)-N-((2-hydroxy-5-methoxybenzyl)oxy)pyrazine-2-carboxamide], for which the IC50 in assay [1] and in assay [2] was above 1000 nM each time.

As for `CCOc1ccc(-c2nc(O)cc(C(=O)NOCc3cc(OC)ccc3F)n2)cc1` [Compound 112], the IC50 in assay [1] is below 500 nM; in assay [2] it was above 1000 nM.

For `[2H]C([2H])([2H])Oc1ccc(F)c(CONC(=O)c2cncc(-c3ccc(OC([2H])([2H])C([2H])([2H])[2H])nc3)n2)c1` [Compound 53, 6-(6-(ethoxy-d5)pyridine-3-yl)-N-((2-fluoro-5-(methoxy-d3)benzyl)oxy)pyrazine-2-carboxamide], the IC50 in assay [1] and in assay [2] was above 1000 nM in each case.

Regarding `COc1cnc(F)c(CONC(=O)c2ccnc(-c3ccc(OC(F)F)nc3)n2)c1` [Compound 117], the IC50 in assay [1] and in assay [2] was above 1000 nM each time.

On to `CCOc1ccc(-c2nc(C(=O)NOCc3cc(OC)ccc3F)cnc2F)cn1` [Compound 104], for which the IC50 in assay [1] is below 500 nM; in assay [2] it was above 1000 nM.

Regarding `CCOc1ccc(-c2cncc(C(=O)NOCc3cncc(OC)c3)n2)cn1` [Compound 36, 6-(6-ethoxypyridine-3-yl)-N-((5-methoxypyridine-3-yl)methoxy)pyrazine-2-carboxamide], the IC50 in assay [1] is below 500 nM; in assay [2], above 1000 nM.

Turning to `CCOc1ccc(-c2cncc(C(=O)NOCc3cncn3C)n2)cn1` [Compound 56], the IC50 in assay [1] is below 500 nM; in assay [2], 500 to 1000 nM.

As to `CCOc1ccc(-c2cncc(C(=O)NOCc3c[nH]nc3C)n2)cn1` [Compound 69, 6-(6-ethoxypyridine-3-yl)-N-((3-methyl-1H-pyrazole-4-yl)methoxy)pyrazine-2-carboxamide], the IC50 in assay [1] and in assay [2] was above 1000 nM each time.

As to `COc1ccc(F)c(CONC(=O)c2cncc(-c3ccc(OC(F)F)nc3)c2)c1` [Compound 116], the IC50 was below 500 nM in assay [1] and above 1000 nM in assay [2].

With `CCOc1ccc(-c2cncc(C(=O)NOCc3[nH]cnc3C)n2)cn1` [Compound 59, 6-(6-ethoxypyridine-3-yl)-N-((4-methyl-1H-imidazole-5-yl)methoxy)pyrazine-2-carboxamide], the concentration for half-maximal inhibition (IC50) in assay [1] and in assay [2] was above 1000 nM each time.

As to `COc1ccc(F)c(CONC(=O)c2nccc(-c3ccc(OC(F)F)nc3)n2)c1` [Compound 119], the IC50 in assay [1] is below 500 nM; in assay [2], above 1000 nM.

Take `CCOc1ccc(-c2cccc(C(=O)NOCc3cc(OC)cnc3F)n2)cn1` [Compound 107]: the IC50 in assay [1] and in assay [2] was above 1000 nM throughout.

In the case of `O=C(NOCc1cccnc1)c1cncc(-c2ccc(OC(F)(F)F)nc2)n1` [Compound 74], the IC50 is below 500 nM in assay [1] and above 1000 nM in assay [2].

Take `CCOc1ccc(-c2cncc(C(=O)NOCc3ccccc3O)n2)cc1` [Compound 6, 6-(4-ethoxyphenyl)-N-((2-hydroxybenzyl)oxy)pyrazine-2-carboxamide]: the half-maximal inhibitory concentration (IC50) in assay [1] and in assay [2] was above 1000 nM throughout.

In the case of `CCOc1ccc(-c2cncc(C(=O)NOCc3cc(OC)ccc3C)n2)cc1` [Compound 19, 6-(4-ethoxyphenyl)-N-((5-methoxy-2-methylbenzyl)oxy)pyrazine-2-carboxamide], the IC50 in assay [1] and in assay [2] was above 1000 nM each time.

For `CCOc1ccc(-c2cncc(C(=O)NOCc3cc(N(C)C)cnc3F)n2)cn1` [Compound 42, N-((5-(dimethylamino)-2-fluoropyridine-3-yl)methoxy)-6-(6-ethoxypyridine-3-yl)pyrazine-2-carboxamide], the IC50 was below 500 nM in assay [1] and above 1000 nM in assay [2].

For `CCOc1ccc(-c2cncc(C(=O)NOCc3cc(OC(C)C)ccc3F)n2)cc1` [Compound 10, 6-(4-ethoxyphenyl)-N-((2-fluoro-5-isopropoxybenzyl)oxy)pyrazine-2-carboxamide], the IC50 was below 500 nM in assay [1] and above 1000 nM in assay [2].

Regarding `COc1cc(CONC(=O)c2cncc(-c3ccc(OC(F)F)nc3)n2)c(F)cn1` [Compound 79, 6-(6-(difluoromethoxy)pyridine-3-yl)-N-((5-fluoro-2-methoxypyridine-4-yl)methoxy)pyrazine-2-carboxamide], the IC50 in assay [1] and in assay [2] was above 1000 nM throughout.

`CCOc1ccc(-c2nc(C(=O)NOCc3cc(OC)ccc3F)cnc2N)cn1` [Compound 102]: the IC50 in assay [1] was below 500 nM; in assay [2], above 1000 nM.

Turning to `CCOc1ccc(-c2cncc(C(=O)NOCc3cc(N(C)C)cnc3F)n2)cn1` [Compound 41, N-((5-(dimethylamino)-2-fluoropyridine-3-yl)methoxy)-6-(6-ethoxypyridine-3-yl)pyrazine-2-carboxamide], the IC50 in assay [1] was below 500 nM; in assay [2] it was above 1000 nM.

For `CCOc1ccc(-c2cncc(C(=O)NOCc3cc(OC)ccc3F)n2)c(C)n1` [Compound 92], the values for the concentration for half-maximal inhibition (IC50) in assay [1] and in assay [2] were below 500 nM and above 1000 nM, respectively.

On to `CCOc1ccc(-c2cncc(C(=O)NOCc3occc3OC)n2)cn1` [Compound 66, 6-(6-ethoxypyridine-3-yl)-N-((3-methoxyfuran-2-yl)methoxy)pyrazine-2-carboxamide], for which the IC50 in assay [1] and in assay [2] was above 1000 nM throughout.
